Assay results as given in patent US20240342292A1, “Compounds for the Degradation of EGFR Kinase” (BeiGene Switzerland GmbH, priority 2021, published 2024).

What was measured:
[1] = biological target: T1, L858R/T790M/C797S EGFR (Homo sapiens, UniProt P00533, C797S/L858R/T790M); test: EGFR degradation HTRF assay in H1975-clone #25 (LTC) cells; assay type: cell-based; details: 16h treatment; for DC50: H1975 # 25-LTC (L858R/T790M/C797S), HTRF; for Dmax: NCI-H1975, H1975 # 25-LTC (L858R/T790M/C797S), maximum percentage of degradation
T1 construct: expressed in transfected cells; host or cells: H1975 clone #25 (lentiviral over-expression, endogenous EGFR knocked out by sgRNA)
T1 sequence (P00533 25-1210 T790M/C797S/L858R): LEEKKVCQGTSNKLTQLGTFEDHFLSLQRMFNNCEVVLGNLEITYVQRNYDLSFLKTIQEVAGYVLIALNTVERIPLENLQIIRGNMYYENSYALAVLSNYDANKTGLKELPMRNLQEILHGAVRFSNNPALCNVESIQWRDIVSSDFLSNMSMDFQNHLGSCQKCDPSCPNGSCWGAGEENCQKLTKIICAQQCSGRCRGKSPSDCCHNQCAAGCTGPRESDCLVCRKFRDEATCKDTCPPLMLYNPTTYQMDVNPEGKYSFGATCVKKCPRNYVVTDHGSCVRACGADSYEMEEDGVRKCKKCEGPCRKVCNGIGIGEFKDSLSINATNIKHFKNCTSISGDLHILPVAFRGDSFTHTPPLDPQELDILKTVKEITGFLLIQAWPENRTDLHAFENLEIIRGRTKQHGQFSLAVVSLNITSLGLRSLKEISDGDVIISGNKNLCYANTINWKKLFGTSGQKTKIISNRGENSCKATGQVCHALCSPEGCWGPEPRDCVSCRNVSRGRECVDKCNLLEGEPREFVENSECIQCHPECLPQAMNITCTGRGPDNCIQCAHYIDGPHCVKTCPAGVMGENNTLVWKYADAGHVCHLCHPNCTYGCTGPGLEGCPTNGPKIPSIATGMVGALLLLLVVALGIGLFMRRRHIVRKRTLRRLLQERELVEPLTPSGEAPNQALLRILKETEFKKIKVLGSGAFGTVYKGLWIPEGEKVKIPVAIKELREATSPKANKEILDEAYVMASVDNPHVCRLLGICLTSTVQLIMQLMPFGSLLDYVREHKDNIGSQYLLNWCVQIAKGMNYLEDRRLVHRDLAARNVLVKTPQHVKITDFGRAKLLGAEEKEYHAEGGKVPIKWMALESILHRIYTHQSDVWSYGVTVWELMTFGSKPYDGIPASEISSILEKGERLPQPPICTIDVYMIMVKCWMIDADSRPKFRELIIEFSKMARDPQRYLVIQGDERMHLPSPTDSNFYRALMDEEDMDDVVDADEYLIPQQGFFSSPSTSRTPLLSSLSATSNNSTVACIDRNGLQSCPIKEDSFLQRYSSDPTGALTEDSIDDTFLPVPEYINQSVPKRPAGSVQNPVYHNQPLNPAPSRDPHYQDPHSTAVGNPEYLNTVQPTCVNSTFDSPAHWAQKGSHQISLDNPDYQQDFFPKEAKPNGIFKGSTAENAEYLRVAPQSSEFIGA
Procedure, shortened: (§1)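 H1975 clones with endogenous EGFR knocked out and lentivirally expressed mutant EGFR treated 16 h at 37 °C with compounds, 8 doses from 10 uM, 5-fold dilutions, 0.2% DMSO. Lysates read by HTRF (665/620 nm) overnight; DC50 from four-parameter fit.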

[2] = test system: Del19/T790M/C797S EGFR; test: EGFR degradation HTRF assay in H1975-clone #28 (DTC) cells; assay type: cell-based; details: H1975 # 28 DTC (Del19/T790M/C797S), 16h treatment; for DC50: HTRF; for Dmax (%): maximum percentage of degradation
Procedure, shortened: as §1

Row | Compound | DC50 [1] [nM] | Dmax [1] [%] | DC50 [2] [nM] | Dmax (%) [2] [%]
1 | Cc1cc2cc(n1)-c1cnn(C)c1OCCC[C@@H](C)CN1/C(=N/C2=O)Nc2ccc(C(=O)N(C)[C@@H]3CCN(CCc4cc(F)c([C@H]5CCC(=O)NC5=O)c(F)c4)C[C@H]3C)cc21 [Example 257, (R,E)-N—((3R,4R)-1-(4-((R)-2,6-dioxopiperidin-3-yl)-3,5-difluorophenethyl)-3-methylpiperidin-4-yl)-N,1^1,2^6,7-tetramethyl-3-oxo-5^2,5^3-dihydro-1^1H,5^1H-11-oxa-4-aza-5(2,1)-benzo[d]imidazola-2(2,4)-pyridina-1(4,5)-pyrazolacycloundecaphane-5^6-carboxamide] | 0.512 | 88 | 0.57 | 80.82
2 | Cc1cc2cc(n1)-c1cnn(C)c1OCCC[C@@H](C)CN1/C(=N/C2=O)Nc2ccc(N3CC(C(=O)N4CCN(c5cc(F)c([C@H]6CCC(=O)NC6=O)c(F)c5)CC4)C3)cc21 [Example 354, (R)-3-(2,6-difluoro-4-(4-(1-((R,E)-1^1,2^6,7-trimethyl-3-oxo-5^2,5^3-dihydro-1^1H,5^1H-11-oxa-4-aza-5(2,1)-benzo[d]imidazola-2(2,4)-pyridina-1(4,5)-pyrazolacycloundecaphane-5^6-yl)azetidine-3-carbonyl)piperazin-1-yl)phenyl)piperidine-2,6-dione] | 0.59 | 89.3 | 0.501 | 72.74
3 | Cc1cc2cc(n1)-c1cnn(C)c1OCCC[C@@H](C)CN1/C(=N/C2=O)Nc2ccc(C(=O)N[C@H](C)C3CCN(CCc4cc(F)c([C@H]5CCC(=O)NC5=O)c(F)c4)CC3)cc21 [Example 271, (R,E)-N—((R)-1-(1-(4-((R)-2,6-dioxopiperidin-3-yl)-3,5-difluorophenethyl)piperidin-4-yl)ethyl)-1^1,2^6,7-trimethyl-3-oxo-5^2,5^3-dihydro-1^1H,5^1H-11-oxa-4-aza-5(2,1)-benzo[d]imidazola-2(2,4)-pyridina-1(4,5)-pyrazolacycloundecaphane-5^6-carboxamide] | 0.557 | 81.2 | 1.15 | 70.36
4 | Cc1cc2cc(n1)-c1cnn(C)c1OCC[C@@H]1C[C@H]1CN1/C(=N/C2=O)Nc2ccc(N3CCN(C4CCN(c5cnc(C6CCC(=O)NC6=O)cc5C)CC4)CC3)cc21 (stereo partly shown) [Example 470, 3-(5-(4-(4-((7^1R,7^2S,E)-1^1,2^6-dimethyl-3-oxo-5^2,5^3-dihydro-1^1H,5^1H-10-oxa-4-aza-5(2,1)-benzo[d]imidazola-2(2,4)-pyridina-1(4,5)-pyrazola-7(1,2)-cyclopropanacyclodecaphane-5^6-yl)piperazin-1-yl)piperidin-1-yl)-4-methylpyridin-2-yl)piperidine-2,6-dione] | 0.849 | 92.1 | 0.617 | 86.76
5 | Cc1cc2cc(n1)-c1cnn(C)c1OCCC[C@@H](C)CN1/C(=N/C2=O)Nc2ccc(CN3CC4(C3)CN(C(=O)C3CN(c5cc(F)c([C@H]6CCC(=O)NC6=O)c(F)c5)C3)C4)cc21 [Example 79, (R)-3-(2,6-difluoro-4-(3-(6-(((R,E)-1^1,2^6,7-trimethyl-3-oxo-5^2,5^3-dihydro-1^1H,5^1H-11-oxa-4-aza-5(2, 1)-benzo[d]imidazola-2(2,4)-pyridina-1(4,5)-pyrazolacycloundecaphane-5^6-yl)methyl)-2,6-diazaspiro[3.3]heptane-2-carbonyl)azetidin-1-yl)phenyl)piperidine-2,6-dione] | 0.6 | 90.6 | 0.7 | 82.2
6 | Cc1cc2cc(n1)-c1cnn(C)c1OCCC[C@@H](C)CN1/C(=N/C2=O)Nc2ccc(N3CCC(N4CCC(Oc5cc(F)c([C@H]6CCC(=O)NC6=O)c(F)c5)CC4)CC3)cc21 [Example 381, (R)-3-(2,6-difluoro-4-((1′-((R,E)-1^1,2^6,7-trimethyl-3-oxo-5^2,5^3-dihydro-1^1H,5^1H-11-oxa-4-aza-5(2,1)-benzo[d]imidazola-2(2,4)-pyridina-1(4,5)-pyrazolacycloundecaphane-5^6-yl)-[1,4′-bipiperidin]-4-yl)oxy)phenyl)piperidine-2,6-dione] | 0.9 | 83.6 | 1.06 | 60.14
7 | Cc1cc2cc(n1)-c1cnn(C)c1OCCC[C@@H](C)CN1/C(=N/C2=O)Nc2ccc(C3CCN(CCc4cc(F)c([C@H]5CCC(=O)NC5=O)c(F)c4)CC3)cc21 [Example 330, (R)-3-(2,6-difluoro-4-(2-(4-((R,E)-1^1,2^6,7-trimethyl-3-oxo-5^2,5^3-dihydro-1^1H,5^1H-11-oxa-4-aza-5(2,1)-benzo[d]imidazola-2(2,4)-pyridina-1(4,5)-pyrazolacycloundecaphane-5^6-yl)piperidin-1-yl)ethyl)phenyl)piperidine-2,6-dione] | 0.972 | 87.1 | 0.633 | 66.1
8 | Cc1cc2cc(n1)-c1cnn(C)c1OCCC[C@@H](C)CN1/C(=N/C2=O)Nc2ccc(N3CCN(CCc4cc(F)c([C@H]5CCC(=O)NC5=O)c(F)c4)CC3)cc21 [Example 320, (R)-3-(2,6-difluoro-4-(2-(4-((R,E)-1^1,26,7-trimethyl-3-oxo-5^2,5^3-dihydro-1^1H,5^1H-11-oxa-4-aza-5(2,1)-benzo[d]imidazola-2(2,4)-pyridina-1(4,5)-pyrazolacycloundecaphane-5^6-yl)piperazin-1-yl)ethyl)phenyl)piperidine-2,6-dione] | 0.591 | 86.2 | 0.674 | 71.04
9 | Cc1cc2cc(n1)-c1cnn(C)c1OCCC[C@@H](C)CN1/C(=N/C2=O)Nc2ccc(C(=O)N(C)C3CCN(C4CN(c5cc(F)c([C@H]6CCC(=O)NC6=O)c(F)c5)C4)CC3)cc21 [Example 290, (R,E)-N-(1-(1-(4-((R)-2,6-dioxopiperidin-3-yl)-3,5-difluorophenyl)azetidin-3-yl)piperidin-4-yl)-N,1′,2^6,7-tetramethyl-3-oxo-5^2,5′-dihydro-1^1H,5^1H-11-oxa-4-aza-5(2,1)-benzo[d]imidazola-2(2,4)-pyridina-1(4,5)-pyrazolacycloundecaphane-5^6-carboxamide] | 0.644 | 89.1 | 0.64 | 80.73
10 | Cc1cc2cc(n1)-c1cnn(C)c1OCCC[C@@H](C)CN1/C(=N/C2=O)Nc2ccc(C(=O)N(C)[C@H]3CCN(CCc4cc(F)c([C@H]5CCC(=O)NC5=O)c(F)c4)C[C@@H]3F)cc21 [Example 247, (R,E)-N-((3S,4S)-1-(4-((R)-2,6-dioxopiperidin-3-yl)-3,5-difluorophenethyl)-3-fluoropiperidin-4-yl)-N,1^1,2^6,7-tetramethyl-3-oxo-5^2,5^3-dihydro-1^1H,5^1H-11-oxa-4-aza-5(2,1)-benzo[d]imidazola-2(2,4)-pyridina-1(4,5)-pyrazolacycloundecaphane-5^6-carboxamide] | 0.6 | 92.5 | 0.611 | 87.12
11 | Cc1cc2cc(n1)-c1cnn(C)c1OCCC[C@@H](C)CN1/C(=N/C2=O)Nc2ccc(C(=O)N(C)C[C@H]3CCCN(CCc4cc(F)c([C@H]5CCC(=O)NC5=O)c(F)c4)C3)cc21 [Example 276, (R,E)-N—(((S)-1-(4-((R)-2,6-dioxopiperidin-3-yl)-3,5-difluorophenethyl)piperidin-3-yl)methyl)-N,1^1, 2^6,7-tetramethyl-3-oxo-5^2,5^3-dihydro-1^1H,5^1H-11-oxa-4-aza-5(2,1)-benzo[d]imidazola-2(2,4)-pyridina-1(4,5)-pyrazolacycloundecaphane-5^6-carboxamide] | 0.592 | 88 | 1.74 | 71.19
12 | Cc1cc2cc(n1)-c1cnn(C)c1OCC[C@H]1C[C@@H]1CN1/C(=N/C2=O)Nc2ccc(N3CCN(C4CCN(c5cnc(C6CCC(=O)NC6=O)cc5C)CC4)CC3)cc21 (stereo partly drawn) [Example 463, 3-(5-(4-(4-((7'S,7^2R,E)-1^1,2^6-dimethyl-3-oxo-5^2,5^3-dihydro-1^1H,5^1H-10-oxa-4-aza-5(2,1)-benzo[d]imidazola-2(2,4)-pyridina-1(4,5)-pyrazola-7(1,2)-cyclopropanacyclodecaphane-5^6-yl)piperazin-1-yl)piperidin-1-yl)-4-methylpyridin-2-yl)piperidine-2,6-dione] | 0.624 | 91.8 | 0.604 | 90.22
13 | Cc1cc2cc(n1)-c1cnn(C)c1OCCC[C@@H](C)CN1/C(=N/C2=O)Nc2ccc(C(=O)N(C)C3CCN(C4CCN(c5cc(F)c([C@H]6CCC(=O)NC6=O)c(F)c5)CC4)CC3)cc21 [Example 289, (R,E)-N-(1′-(4-((R)-2,6-dioxopiperidin-3-yl)-3,5-difluorophenyl)-[1,4′-bipiperidin]-4-yl)-N,1^1,2^6,7-tetramethyl-3-oxo-5^2,5^3-dihydro-1^1H,5^1H-11-oxa-4-aza-5(2,1)-benzo[d]imidazola-2(2,4)-pyridina-1(4,5)-pyrazolacycloundecaphane-5^6-carboxamide] | 0.454 | 93.8 | 0.624 | 91.07
